In PubChem BioAssay (NCI):
Where “and” joins values, the source holds several entries; their conditions need not be identical. Identical values can stand only once.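 Grown in 96-well plates, cells were treated for 48 hours with each compound at five concentrations. Insufficient inhibition: endpoint recorded as highest concentration tested. GI50 = concentration required for 50% inhibition of growth. TGI: total growth inhibition.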

Assays:
Experiment in all cases: NCI tumour cell line growth inhibition, 48 h
[1] = tested on: HCC-2998 colon
[2] = tested on: MOLT-4 leukemia
[3] = tested on: NCI-H226 lung
[4] = tested on: NCI-H460 lung
[5] = tested on: NCI-H23 lung
[6] = tested on: SNB-19 CNS
[7] = tested on: OVCAR-3 ovarian
[8] = tested on: OVCAR-5 ovarian
[9] = tested on: NCI-H522 lung
[10] = tested on: CCRF-CEM leukemia

Row | Compound | GI50 [1] | TGI [1] [µM] | GI50 [2] | TGI [2] [µM] | GI50 [3] [µM] | TGI [3] [µM] | GI50 [4] [µM] | TGI [4] [µM] | GI50 [5] [µM] | TGI [5] [µM] | GI50 [6] [µM] | TGI [6] [µM] | GI50 [7] [µM] | TGI [7] [µM] | TGI [8] [µM] | TGI [9] [µM] | GI50 [8] [µM] | GI50 [9] [µM] | GI50 [10] [µM] | TGI [10]
1 | CCC[CH2][Sn-]([CH2]CCC)([CH2]CCC)[O]c1cc(Cl)c(Cl)cc1Cl | 0.176 µM | 0.334 | 0.167 µM | 0.545 | 0.00872 | 0.244 | 0.165 | 0.344 | 0.23 | 1.17 | 0.143 | 0.445 | 0.176 | 0.365 |  |  |  |  |  | 
2 | Cc1ccc(OCC(=O)N2N=C(c3ccccc3)CC2(O)c2ccccc2)cc1 (stereo not given) |  | > 100 |  | > 100 |  | 52.5 |  | 28.2 |  | > 100 |  | > 100 |  | > 100 | 32.7 | > 100 |  |  |  | 
3 | N#Cc1cn(C2OC(CO)C(O)C2O)c2ncnc(N)c12 (stereo not given) | 0.0609 µM and 0.0758 µM and < 0.0249 µM |  | 0.045 µM and 0.0319 µM |  |  |  | < 0.0141 |  | 0.0256 |  |  |  |  |  |  |  | 0.238 | 0.0293 | 0.045 | 0.216 µM and 0.84 µM and 0.0961 µM
4 | Cc1ncc(CN=Cc2ccc(Cl)cc2)c(N)n1 |  |  |  | > 100 |  | > 100 |  | > 100 |  | > 100 |  | > 100 |  | > 100 | > 100 | > 100 |  |  |  | > 100 µM
5 | CN(C)c1cccc2c(S(=O)(=O)N[C@H]3CC[C@H]4[C@@H]5CCc6cc(O)ccc6[C@H]5CC[C@]34C)cccc12 | 3.17 µM | 14.6 | 3.14 µM | > 100 | 3.02 | 11.2 | 2 | 4.52 | 2.99 | 22 | 3.43 | > 100 | 2.33 | 6.26 | 13.2 |  | 3.09 |  | 3.25 | > 100 µM
6 | Cc1c2c(nn1-c1ccc(S(=O)(=O)NC(=S)Nc3ccccc3)cc1)-c1ccccc1CC2 |  |  | > 50 µM | > 50 | > 50 | > 50 |  |  | 46.8 | > 50 | > 50 | > 50 | 36.8 | > 50 | > 50 | > 50 | > 50 | 21.5 |  | 
7 | O=C1C(=O)N(C(=O)c2ccc(Cl)c(Cl)c2)c2ccccc21 |  |  |  | > 100 |  | > 100 |  |  |  | > 100 |  | > 100 |  | > 100 | > 100 |  |  |  |  | > 100 µM
8 | COc1ccc(-c2nc3sc(C)cn3c2/C=C/C(=O)c2cc(OC)c(OC)c(OC)c2)cc1 | 3.71 µM | 7.66 |  |  | 4.12 | > 100 |  |  |  |  | 4.55 | > 100 | 2.34 | 5.83 | > 100 | 3.14 | > 100 | 0.88 | 3.06 | > 100 µM
9 | O=C(c1ccccc1)C(C(=O)c1ccccc1)C1(O)C(=O)c2ccccc2C1=O |  | > 100 |  | > 100 |  | > 100 |  |  |  | 84.6 |  | > 100 |  | > 100 | > 100 | 42.2 |  |  |  | 83 µM
10 | COc1ccc2cc(C(=O)/C=C/c3cc(OC)c(OC)c(OC)c3)ccc2c1 |  |  | 2.91 µM | > 50 |  |  | 1.27 | 5.73 | 1.77 | 11.2 | 12.9 | 26.3 | 5.86 | > 50 |  |  |  |  | > 50 | > 50 µM
11 | CCOc1cc2ncc(C#N)c(Nc3ccc(OCc4cccc(F)c4)c(Cl)c3)c2cc1NC(=O)CC1CCSS1 (stereo not given) | 0.484 µM | 0.974 |  |  | 11 | > 25 | 0.465 | 0.948 | 2.08 | > 25 | > 25 | > 25 | 1.09 | 9.3 | > 25 | > 25 | > 25 | > 6.9 | 0.146 | > 25 µM
12 | N=C1C(c2nc(-c3ccc(Br)cc3)cs2)=C(O)CN1Cc1cccnc1 | 24.3 µM | 80.4 | 4.39 µM | 42.7 | 11.2 | 33.3 | 12.3 | > 100 | 22.5 | > 100 | 40.1 | > 100 | 14 | 42 | 42.8 |  | 2.66 |  | 4.28 | 65.8 µM
13 | COC(=O)C1CC2(CC3=C1CCCC3)OCCO2 (stereo not given) |  | > 100 |  |  |  |  |  | > 100 |  | > 100 |  | > 100 |  | > 100 |  | > 100 |  |  |  | > 100 µM
14 | COc1cc([C@H]2c3cc4c(cc3O[C@@]3(O)COC(=O)[C@@H]23)OCO4)cc(OC)c1OC |  | > 100 |  | > 100 |  | > 100 |  | > 100 |  |  |  | > 100 |  | > 100 | > 100 | > 100 |  |  |  | > 100 µM
15 | CC1=C(C)C(=O)c2c(cc3ccc4ccccc4n23)C1=O |  | > 100 |  | > 100 |  | > 100 |  | > 100 |  | > 100 |  | > 100 |  | > 100 | > 100 |  |  |  |  | > 100 µM
16 | Cn1c(=O)nc2n(-c3ccc(Cl)cc3)c3ccc(Cl)cc3nc-2c1=O |  | 40.6 |  | 65.7 |  | 27.9 |  | 33.7 |  | 8.65 |  |  |  | 8.14 | 29.6 | 21.3 |  |  |  | 85.6 µM
17 | CCOC(=O)c1c2c(n3ccc(NC(=O)CCN4CCCC4)cc13)C(=O)c1ncccc1C2=O |  |  | 1.52 µM | 4.81 | 19 | 45.1 |  |  |  |  | 1.17 | 3.54 | 1.48 | 3.12 | 3.42 |  | 1.57 |  | 1.88 | 5.41 µM
18 | Cc1cc2c(c(C#N)c1C)NC(=O)CCC2=O |  | > 100 |  | > 100 |  |  |  | > 100 |  | > 100 |  |  |  | > 100 |  |  |  |  |  | > 100 µM
19 | CC(=O)n1c(COS(C)(=O)=O)nc2ccccc21 |  | > 100 |  |  |  | > 100 |  | > 100 |  | > 100 |  | > 100 |  | > 100 | > 100 | > 100 |  |  |  | 
